ChEMBL document CHEMBL1201862, “PubChem BioAssay data set” (2004)
Each block holds one compound with its values, some of them ahead of it. Activity calls are given as the source filed them.

Assays:
Aminopeptidase N = biological target: T1, Aminopeptidase N (Plasmodium falciparum FcB1/Columbia, UniProt O96935); experiment: P. falciparum M1AAP inhibitors, biochemical, fluorogenic H-Leu-NHMec substrate, 1536-well (AID 1445); design: species or system Plasmodium falciparum 3D7, 3D7
T1 sequence (O96935 whole entry): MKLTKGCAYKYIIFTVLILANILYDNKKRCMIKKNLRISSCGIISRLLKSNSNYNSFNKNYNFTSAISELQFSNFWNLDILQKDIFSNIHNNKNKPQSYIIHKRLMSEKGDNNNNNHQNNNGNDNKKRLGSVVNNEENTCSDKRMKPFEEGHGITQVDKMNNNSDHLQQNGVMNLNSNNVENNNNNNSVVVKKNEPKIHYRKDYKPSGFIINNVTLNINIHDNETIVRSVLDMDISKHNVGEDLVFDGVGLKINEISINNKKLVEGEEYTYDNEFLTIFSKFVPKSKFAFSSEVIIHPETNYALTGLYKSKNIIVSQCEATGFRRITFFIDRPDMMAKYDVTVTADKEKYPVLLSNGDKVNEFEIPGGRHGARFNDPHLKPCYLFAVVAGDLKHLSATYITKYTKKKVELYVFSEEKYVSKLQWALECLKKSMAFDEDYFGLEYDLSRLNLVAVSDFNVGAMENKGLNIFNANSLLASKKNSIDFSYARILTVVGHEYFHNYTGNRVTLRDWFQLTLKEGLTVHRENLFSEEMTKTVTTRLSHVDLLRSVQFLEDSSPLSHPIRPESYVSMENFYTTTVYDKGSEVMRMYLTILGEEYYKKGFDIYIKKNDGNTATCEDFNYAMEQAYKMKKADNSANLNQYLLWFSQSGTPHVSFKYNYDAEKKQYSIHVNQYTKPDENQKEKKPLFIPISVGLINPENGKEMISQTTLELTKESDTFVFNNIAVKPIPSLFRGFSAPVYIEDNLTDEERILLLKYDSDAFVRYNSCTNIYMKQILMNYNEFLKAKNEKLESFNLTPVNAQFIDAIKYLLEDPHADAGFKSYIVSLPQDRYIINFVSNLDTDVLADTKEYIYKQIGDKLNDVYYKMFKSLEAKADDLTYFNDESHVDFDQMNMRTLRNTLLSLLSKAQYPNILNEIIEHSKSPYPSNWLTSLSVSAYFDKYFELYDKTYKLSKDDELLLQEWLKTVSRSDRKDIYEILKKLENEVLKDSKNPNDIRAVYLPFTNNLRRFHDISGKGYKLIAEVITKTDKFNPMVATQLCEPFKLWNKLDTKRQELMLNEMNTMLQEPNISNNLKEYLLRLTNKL

[1] = biological target: T2, Corticotropin-releasing factor receptor 2/Corticotropin-releasing factor-binding protein (Homo sapiens, UniProt P24387+Q13324); experiment: Dose Response confirmation of uHTS hits for small molecule antagonists of the CRF-binding protein and CRF-R2 receptor complex.; format: functional; conditions: read-out: IC50_Mean
T2 sequence (Q13324 whole entry): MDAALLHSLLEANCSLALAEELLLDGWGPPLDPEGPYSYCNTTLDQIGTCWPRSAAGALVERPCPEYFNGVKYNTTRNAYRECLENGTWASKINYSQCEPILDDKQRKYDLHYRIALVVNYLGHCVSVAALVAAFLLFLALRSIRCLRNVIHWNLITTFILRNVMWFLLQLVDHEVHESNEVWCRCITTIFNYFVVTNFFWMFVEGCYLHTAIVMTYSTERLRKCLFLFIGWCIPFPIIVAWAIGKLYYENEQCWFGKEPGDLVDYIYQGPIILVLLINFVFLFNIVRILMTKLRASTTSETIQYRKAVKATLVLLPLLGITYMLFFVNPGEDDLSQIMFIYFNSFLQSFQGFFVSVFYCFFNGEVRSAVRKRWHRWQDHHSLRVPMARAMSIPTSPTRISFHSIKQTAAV
T2 sequence (P24387 whole entry): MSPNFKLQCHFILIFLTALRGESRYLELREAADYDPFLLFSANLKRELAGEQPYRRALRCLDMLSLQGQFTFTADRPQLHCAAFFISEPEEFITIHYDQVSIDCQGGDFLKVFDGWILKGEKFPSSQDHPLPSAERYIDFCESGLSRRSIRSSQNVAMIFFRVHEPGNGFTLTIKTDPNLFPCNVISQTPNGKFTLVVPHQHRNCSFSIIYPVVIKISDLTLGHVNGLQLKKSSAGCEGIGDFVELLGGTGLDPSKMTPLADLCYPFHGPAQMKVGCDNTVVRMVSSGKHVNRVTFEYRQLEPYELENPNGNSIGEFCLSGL

[2] = biological target: T2, Corticotropin-releasing factor receptor 2/Corticotropin-releasing factor-binding protein; experiment: activators of CRF receptor 2 with binding protein – uHTS hits, confirmation (AID 602473); format: functional; conditions: read-out: EC50_Mean
Cytochrome P450 3A4 = Cytochrome P450 3A4 (Homo sapiens, UniProt P08684); conditions: Potency;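 note: confirmatory qHTS run detecting inhibitors and substrates of CYP3A4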
Sequence of Cytochrome P450 3A4 (P08684 whole entry): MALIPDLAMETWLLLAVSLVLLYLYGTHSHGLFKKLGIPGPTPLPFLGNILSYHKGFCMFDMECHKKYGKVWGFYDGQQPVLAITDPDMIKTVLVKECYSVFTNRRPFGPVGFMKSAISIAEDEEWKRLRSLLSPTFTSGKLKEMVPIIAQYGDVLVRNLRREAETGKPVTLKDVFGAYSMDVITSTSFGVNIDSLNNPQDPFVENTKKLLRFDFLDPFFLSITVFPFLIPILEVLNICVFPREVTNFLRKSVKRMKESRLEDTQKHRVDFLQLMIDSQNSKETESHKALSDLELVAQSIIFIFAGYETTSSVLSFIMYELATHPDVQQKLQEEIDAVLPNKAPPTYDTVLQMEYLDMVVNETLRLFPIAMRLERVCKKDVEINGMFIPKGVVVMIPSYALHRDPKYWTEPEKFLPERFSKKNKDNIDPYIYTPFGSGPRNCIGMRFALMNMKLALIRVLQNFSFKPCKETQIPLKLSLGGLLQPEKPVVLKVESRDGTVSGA

[3] = biological target: Eukaryotic translation initiation factor 4E (Mus musculus, UniProt P63073); experiment: eIF4E–eIF4G protein interaction inhibitors, dose response, biochemical, TR-FRET (AID 855); format: functional;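 note: potency for disrupting eIF4E binding to eIF4GI seen as loss of FRET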
Sequence of Eukaryotic translation initiation factor 4E (P63073 whole entry): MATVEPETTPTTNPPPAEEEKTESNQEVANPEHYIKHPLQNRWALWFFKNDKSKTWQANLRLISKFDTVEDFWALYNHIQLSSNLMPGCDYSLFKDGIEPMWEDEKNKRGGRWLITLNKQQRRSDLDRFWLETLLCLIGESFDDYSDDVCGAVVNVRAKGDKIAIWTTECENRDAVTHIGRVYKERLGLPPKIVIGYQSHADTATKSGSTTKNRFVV

[4] = biological target: T3, Short transient receptor potential channel 4 (Mus musculus, UniProt Q9QUQ5); experiment: mouse TRPC4 channel activators, dose response, cell-based, HEK293 TRPC4/mu-opioid, Fluo-4 calcium (AID 434937); format: functional
T3 sequence (Q9QUQ5 whole entry): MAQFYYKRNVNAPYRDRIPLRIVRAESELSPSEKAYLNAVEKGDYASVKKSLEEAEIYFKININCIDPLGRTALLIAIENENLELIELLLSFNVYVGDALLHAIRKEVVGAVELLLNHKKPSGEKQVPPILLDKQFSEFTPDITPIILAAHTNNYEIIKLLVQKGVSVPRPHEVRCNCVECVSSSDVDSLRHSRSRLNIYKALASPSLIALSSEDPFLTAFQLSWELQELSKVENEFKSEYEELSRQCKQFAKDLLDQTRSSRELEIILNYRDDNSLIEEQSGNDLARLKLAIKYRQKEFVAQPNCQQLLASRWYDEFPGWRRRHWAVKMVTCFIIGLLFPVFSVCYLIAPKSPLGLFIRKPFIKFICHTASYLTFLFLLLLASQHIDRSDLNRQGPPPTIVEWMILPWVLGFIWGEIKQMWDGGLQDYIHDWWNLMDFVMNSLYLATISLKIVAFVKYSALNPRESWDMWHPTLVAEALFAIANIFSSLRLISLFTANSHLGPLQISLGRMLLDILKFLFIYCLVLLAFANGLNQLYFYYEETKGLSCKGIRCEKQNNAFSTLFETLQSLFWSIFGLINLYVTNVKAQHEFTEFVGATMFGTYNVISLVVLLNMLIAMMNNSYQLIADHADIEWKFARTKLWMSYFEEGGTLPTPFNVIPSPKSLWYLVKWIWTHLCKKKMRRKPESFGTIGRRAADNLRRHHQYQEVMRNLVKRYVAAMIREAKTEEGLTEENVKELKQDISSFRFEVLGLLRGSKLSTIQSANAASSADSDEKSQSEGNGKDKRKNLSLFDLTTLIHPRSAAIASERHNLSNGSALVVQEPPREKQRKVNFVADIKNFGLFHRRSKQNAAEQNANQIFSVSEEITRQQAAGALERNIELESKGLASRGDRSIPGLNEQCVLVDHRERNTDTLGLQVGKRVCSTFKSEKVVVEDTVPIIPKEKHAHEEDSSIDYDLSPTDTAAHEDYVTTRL

Kallikrein-7 = Kallikrein-7 (Homo sapiens, UniProt P49862); experiment: Fluorescence Intensity-based biochemical primary high throughput dose response assay to identify activators of kallikrein-7 (K7) zymogen.
Sequence of Kallikrein-7 (P49862 whole entry): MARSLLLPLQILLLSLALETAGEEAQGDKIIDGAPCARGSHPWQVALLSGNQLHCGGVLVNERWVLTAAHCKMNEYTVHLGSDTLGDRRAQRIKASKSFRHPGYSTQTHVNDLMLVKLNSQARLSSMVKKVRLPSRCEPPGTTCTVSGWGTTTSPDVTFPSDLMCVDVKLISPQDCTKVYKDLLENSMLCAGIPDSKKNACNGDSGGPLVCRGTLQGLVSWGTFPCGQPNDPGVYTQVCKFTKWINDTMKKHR

[5] = biological target: T4, Polyadenylate-binding protein 1 (Homo sapiens, UniProt P11940); experiment: PABP1 MLLE–PAM2 interaction inhibitors, dose response, miRNA deadenylation inhibitor project, biochemical, fluorescence polarization, Cy5-PAM2 peptide, secondary (AID 602260); format: functional; conditions: read-out: IC50_Mean
T4 sequence (P11940 whole entry): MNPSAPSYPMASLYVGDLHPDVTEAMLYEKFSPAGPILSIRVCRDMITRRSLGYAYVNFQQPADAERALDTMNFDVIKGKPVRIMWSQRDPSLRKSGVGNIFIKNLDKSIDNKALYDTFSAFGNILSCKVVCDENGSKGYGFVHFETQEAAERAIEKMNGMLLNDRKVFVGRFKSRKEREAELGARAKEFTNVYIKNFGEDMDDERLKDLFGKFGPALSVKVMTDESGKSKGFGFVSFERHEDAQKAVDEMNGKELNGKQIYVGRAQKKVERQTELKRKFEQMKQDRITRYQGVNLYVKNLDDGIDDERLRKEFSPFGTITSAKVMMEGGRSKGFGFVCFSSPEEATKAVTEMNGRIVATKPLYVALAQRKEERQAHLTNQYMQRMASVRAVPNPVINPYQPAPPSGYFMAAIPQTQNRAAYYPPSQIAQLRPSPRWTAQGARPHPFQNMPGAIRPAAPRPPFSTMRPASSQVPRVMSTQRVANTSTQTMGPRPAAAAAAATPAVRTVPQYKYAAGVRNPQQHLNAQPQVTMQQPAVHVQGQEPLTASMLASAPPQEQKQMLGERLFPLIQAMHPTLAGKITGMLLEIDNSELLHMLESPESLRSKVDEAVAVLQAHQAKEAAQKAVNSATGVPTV

[6] = biological target: T4, Polyadenylate-binding protein 1; experiment: PABP1 MLLE–PAM2 binding inhibitor potency, dose response, biochemical, fluorescence polarization, FITC-PAM2 peptide (AID 602259); format: functional; conditions: read-out: IC50_Mean
[7] = biological target: Voltage-dependent T-type calcium channel subunit alpha-1H (Homo sapiens, UniProt O95180); format: functional;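 note: channel activity triggered by adding a high calcium stimulation buffer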
Sequence of Voltage-dependent T-type calcium channel subunit alpha-1H (O95180 whole entry): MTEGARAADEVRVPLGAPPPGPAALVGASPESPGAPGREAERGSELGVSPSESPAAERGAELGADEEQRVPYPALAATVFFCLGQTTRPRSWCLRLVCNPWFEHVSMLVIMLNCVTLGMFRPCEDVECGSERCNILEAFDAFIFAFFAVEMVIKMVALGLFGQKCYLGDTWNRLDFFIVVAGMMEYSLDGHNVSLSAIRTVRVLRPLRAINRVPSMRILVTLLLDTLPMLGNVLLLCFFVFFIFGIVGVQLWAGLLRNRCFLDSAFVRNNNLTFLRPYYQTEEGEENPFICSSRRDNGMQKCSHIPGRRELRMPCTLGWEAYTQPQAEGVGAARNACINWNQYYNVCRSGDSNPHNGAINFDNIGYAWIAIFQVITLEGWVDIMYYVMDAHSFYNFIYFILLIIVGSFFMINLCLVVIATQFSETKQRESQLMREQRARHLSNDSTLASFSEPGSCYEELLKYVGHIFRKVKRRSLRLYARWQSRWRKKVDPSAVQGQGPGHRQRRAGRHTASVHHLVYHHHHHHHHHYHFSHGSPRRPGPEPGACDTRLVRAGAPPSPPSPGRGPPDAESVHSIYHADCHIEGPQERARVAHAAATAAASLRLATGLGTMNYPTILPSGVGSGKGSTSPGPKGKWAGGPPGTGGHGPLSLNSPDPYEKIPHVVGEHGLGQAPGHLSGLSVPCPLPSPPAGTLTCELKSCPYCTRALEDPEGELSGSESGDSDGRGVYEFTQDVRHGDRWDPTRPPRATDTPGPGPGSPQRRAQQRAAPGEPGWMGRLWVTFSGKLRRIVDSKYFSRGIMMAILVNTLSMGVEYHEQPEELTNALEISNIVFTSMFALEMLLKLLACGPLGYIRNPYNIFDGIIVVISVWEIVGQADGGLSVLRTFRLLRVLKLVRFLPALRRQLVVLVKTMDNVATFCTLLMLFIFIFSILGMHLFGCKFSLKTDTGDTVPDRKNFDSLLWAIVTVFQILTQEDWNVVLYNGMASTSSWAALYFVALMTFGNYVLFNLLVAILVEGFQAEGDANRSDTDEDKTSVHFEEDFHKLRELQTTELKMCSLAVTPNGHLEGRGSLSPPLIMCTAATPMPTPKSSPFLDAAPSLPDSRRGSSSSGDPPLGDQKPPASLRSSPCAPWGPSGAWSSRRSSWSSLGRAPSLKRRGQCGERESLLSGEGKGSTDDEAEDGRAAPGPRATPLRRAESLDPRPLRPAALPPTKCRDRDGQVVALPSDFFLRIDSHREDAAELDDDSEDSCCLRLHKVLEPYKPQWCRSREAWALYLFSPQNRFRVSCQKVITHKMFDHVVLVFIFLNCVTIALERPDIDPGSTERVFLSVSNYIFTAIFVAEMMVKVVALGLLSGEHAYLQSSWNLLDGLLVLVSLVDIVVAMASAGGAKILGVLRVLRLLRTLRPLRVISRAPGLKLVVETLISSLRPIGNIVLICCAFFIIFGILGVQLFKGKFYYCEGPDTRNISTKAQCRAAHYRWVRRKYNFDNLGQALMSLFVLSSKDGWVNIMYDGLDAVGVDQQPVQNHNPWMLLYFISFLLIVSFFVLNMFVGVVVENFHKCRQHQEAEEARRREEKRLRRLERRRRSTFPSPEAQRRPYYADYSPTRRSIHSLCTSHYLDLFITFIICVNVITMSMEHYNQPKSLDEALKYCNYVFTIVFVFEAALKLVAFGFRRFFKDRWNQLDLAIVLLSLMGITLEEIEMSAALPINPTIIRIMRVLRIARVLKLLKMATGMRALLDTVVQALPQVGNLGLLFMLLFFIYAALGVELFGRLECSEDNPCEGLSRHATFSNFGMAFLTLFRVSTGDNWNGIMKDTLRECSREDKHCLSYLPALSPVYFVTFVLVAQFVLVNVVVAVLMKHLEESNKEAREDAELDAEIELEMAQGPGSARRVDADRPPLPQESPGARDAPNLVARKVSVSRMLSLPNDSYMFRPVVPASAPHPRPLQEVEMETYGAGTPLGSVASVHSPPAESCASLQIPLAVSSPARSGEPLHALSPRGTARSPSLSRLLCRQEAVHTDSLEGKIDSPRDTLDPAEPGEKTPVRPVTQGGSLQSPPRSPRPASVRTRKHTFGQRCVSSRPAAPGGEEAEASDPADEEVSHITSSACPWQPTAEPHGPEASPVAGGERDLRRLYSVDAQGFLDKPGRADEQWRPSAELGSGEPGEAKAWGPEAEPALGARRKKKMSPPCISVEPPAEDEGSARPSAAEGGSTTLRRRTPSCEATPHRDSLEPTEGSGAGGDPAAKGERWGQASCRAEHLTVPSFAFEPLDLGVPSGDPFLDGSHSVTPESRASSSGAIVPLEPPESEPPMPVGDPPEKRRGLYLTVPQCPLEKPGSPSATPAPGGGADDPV

IC50 (Aminopeptidase N): 40 µM (active)
IC50 [1]: > 47.1 µM (inactive)
EC50 [2]: > 53 µM (inactive)
SMILES: CC(=O)c1ccc(-c2cccs2)s1

AC50 (Cytochrome P450 3A4): 2.51 µM (inconclusive)
SMILES: CCCCCCN(C(=O)CCCCCN1C(=O)NC(c2ccc(-c3ccccc3)cc2)C(C(=O)OCc2ccccc2)=C1C)C(C(=O)NCCCC)c1cccc(C(=O)OC)c1 (stereo not drawn)

IC50 [3]: > 64 µM (inactive)
SMILES: COc1ccc(O)c(/C=C(\C#N)C(=O)Nc2cccnc2)c1

AC50 (Cytochrome P450 3A4): 39.8 µM (inconclusive)
SMILES: C=CCCCCCCCCCCC/C=C/C(O)COC(C)=O (stereo not drawn) [DEHYDROAVOCATIN-1-ACETATE]

IC50 [3]: > 64 µM (inactive)
SMILES: Cc1sc(NC(=O)Cn2nc(C(F)(F)F)cc2C)c(C(=O)OC(C)C)c1C

EC50 [4]: 0.0107 µM (active)
SMILES: CCCN(CCC)CCCNC(=O)c1ccc2c(Cl)c3c(nc2c1)CCC3

EC50 (Kallikrein-7): > 69.5 µM (inactive)
SMILES: CC1=C(C#N)C(c2cccnc2)C2=C(O)CC(C)(C)CC2=N1 (stereo not drawn)

EC50 (Kallikrein-7): 8.33 µM (active)
SMILES: CCOC(=O)C1CCN(c2[nH]cnc3c4c(OC)cccc4nc2-3)CC1

IC50 [5]: > 66 µM (inactive)
IC50 [6]: 58.9 µM (inactive)
EC50 (Kallikrein-7): > 69.5 µM (inactive)
SMILES: CN1C=CC2=C(C#N)C(N)C(C#N)(C#N)[C@H](c3ccccc3)[C@H]2C1 (stereo partly drawn)

EC50 [7]: 1.25 µM (active)
SMILES: Cc1ccc(-n2c(Cc3cccn3C)nnc2SCC(=O)Nc2ccc3c(c2)OCO3)cc1

EC50 [7]: 7.47 µM (active)
SMILES: Cc1ccc(-c2nnn(C(C)C(=O)N3c4ccccc4CCc4ccccc43)n2)cc1 (stereo not drawn)

EC50 [4]: 4.73 µM (active)
IC50 [1]: > 47.1 µM (inactive)
EC50 [2]: > 53 µM (inactive)
SMILES: Cc1onc(-c2c(F)cccc2Cl)c1C(=O)N1CCN(c2ncc(Br)cn2)CC1
